Here are results for 3 molecules from paper PMC9820763, “The Functional Characterization of Carboxylesterases Involved in the Degradation of Volatile Esters Produced in Strawberry Fruits” (International Journal of Molecular Sciences, 2022).

Molecules are shown by their SMILES.

Assay [1] deals with T1, rFaCXE3 (FaCXE3).
T1 construct: fusion protein about 35-40 kDa; cloned from strawberry green fruit cDNA
Description: GC-MS of alcohol product, double-reciprocal plot. The format is biochemical, Fragaria x ananassa. Conditions: Tris-HCl 100 mM, pH 7.5, 30 °C. From the text:
GC-MS of alcohol product, double-reciprocal plot on rFaCXE3 (FaCXE3)

The test system of assay [2] is T2, rFaCXE2 (FaCXE2).
T2 construct: fusion protein about 35-40 kDa; cloned from strawberry green fruit cDNA
Description: GC-MS of alcohol product, double-reciprocal plot. It counts as biochemical, Fragaria x ananassa. Conditions: Tris-HCl 100 mM, pH 7.5, 30 °C. From the text:
GC-MS of alcohol product, double-reciprocal plot on rFaCXE2 (FaCXE2)

Broadly, the Km is the concentration of substrate that gives half-maximal velocity. `CC/C=C\CCOC(C)=O` [Z-3-Hexenyl acetate]: the results for the Km in assay [1] and in assay [2] were 950 ± 50 µM and 2500 ± 130 µM, respectively.
For `CCC/C=C/COC(C)=O` [E-2-Hexenyl acetate], in that order: 980 ± 110 µM and 1040 ± 50 µM.
For `CCCCCCOC(C)=O` [Hexyl acetate], in that order: 840 ± 70 µM and 10900 ± 840 µM.
